Where only a bound is given, the exact number is not on record here.

Data on six compounds can be found in patent publication US8846704B2, “Thiopyrimidine-based compounds and uses thereof” (YM Biosciences Austraila Pty Ltd, priority 2007, dated 2014).

This assay has as its target T1, BaF3 TELJAK3 cells (Homo sapiens, UniProt P52333).
T1 construct: fused on or other part: TEL (ETV6) N-terminal part, coding nucleotides 1-487, serves as the oligomerising partner; It is fused through a Sal I site to the JAK3 kinase domain and expressed from pTRE2 in BaF3 cells bearing pTET-off; P41212 (Transcription factor ETV6)
T1 sequence (P52333 1-1124): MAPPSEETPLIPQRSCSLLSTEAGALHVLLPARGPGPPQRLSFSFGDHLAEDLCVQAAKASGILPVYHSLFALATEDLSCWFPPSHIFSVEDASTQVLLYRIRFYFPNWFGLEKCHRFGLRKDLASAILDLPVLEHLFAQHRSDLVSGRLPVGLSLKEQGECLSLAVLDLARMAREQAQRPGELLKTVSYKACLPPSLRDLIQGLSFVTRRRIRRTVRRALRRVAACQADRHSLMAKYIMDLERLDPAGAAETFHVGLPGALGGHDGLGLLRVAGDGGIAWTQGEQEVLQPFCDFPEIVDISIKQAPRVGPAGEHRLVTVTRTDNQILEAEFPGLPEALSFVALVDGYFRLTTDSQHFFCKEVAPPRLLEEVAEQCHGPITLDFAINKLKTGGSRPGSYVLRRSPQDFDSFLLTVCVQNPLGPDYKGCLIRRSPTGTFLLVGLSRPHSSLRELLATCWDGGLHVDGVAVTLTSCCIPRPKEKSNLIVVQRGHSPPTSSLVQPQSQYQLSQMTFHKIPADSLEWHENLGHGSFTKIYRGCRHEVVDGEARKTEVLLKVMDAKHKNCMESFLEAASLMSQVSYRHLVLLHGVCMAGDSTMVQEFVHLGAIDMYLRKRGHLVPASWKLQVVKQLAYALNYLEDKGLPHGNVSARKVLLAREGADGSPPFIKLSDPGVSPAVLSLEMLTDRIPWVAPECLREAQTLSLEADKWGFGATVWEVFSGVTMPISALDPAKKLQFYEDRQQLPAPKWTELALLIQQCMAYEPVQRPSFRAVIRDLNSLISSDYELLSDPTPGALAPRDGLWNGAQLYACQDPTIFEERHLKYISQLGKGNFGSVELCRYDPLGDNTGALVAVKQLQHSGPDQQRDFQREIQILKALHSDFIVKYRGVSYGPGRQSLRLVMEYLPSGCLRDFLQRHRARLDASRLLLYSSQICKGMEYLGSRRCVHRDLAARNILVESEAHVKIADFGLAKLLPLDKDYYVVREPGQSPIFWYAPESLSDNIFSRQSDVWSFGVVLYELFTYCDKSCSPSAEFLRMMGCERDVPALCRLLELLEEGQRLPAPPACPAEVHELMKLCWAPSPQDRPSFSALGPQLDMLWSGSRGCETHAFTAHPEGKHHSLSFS
Briefly: Cellular screening, BaF3 TEL:JAK3 cells, Alamar Blue. Conditions: 40 hr, read-out: BafT_J3 IC50_nM. It counts as cell-based. Put shortly: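 Alamar Blue signal at 544 nm, developed for 4–6 h, measured viability after 40 h of compound treatment at 37 °C, 5% CO2. Cells were growth-factor-independent BaF3 lines transfected with a TEL/JAK3 kinase-domain fusion under tet-off control. They were cultured in DMEM, 10% Tet-approved FBS, lacking WEHI 3B conditioned medium.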
For orientation: The colour change of resazurin is a common sign of viable cells or microbes.
On to `O=C(/C=C\Cl)Nc1ccc(Sc2ccnc(Nc3ccc(N4CCOCC4)cc3)n2)cc1` [Compound 346, (Z)-3-chloro-N-(4-(2-(4-morpholinophenylao)pyrimidin-4-ylthio)phenyl)acrylamide], for which the GI50 is less than 1 µM.

With `C=CC(=O)Nc1ccc(Sc2ccnc(Nc3ccc(S(N)(=O)=O)c(OC)c3)n2)cc1` [Compound 374, N-(4-(2-(3-methoxy-4-sulfamoylphenylao)pyrimidin-4-ylthio)phenyl)acrylamide], the GI50 is less than 1 µM.

Take `Cc1cnc(Nc2ccc(N3CCOCC3)cc2)nc1Sc1ccc(NC(=O)/C=C\C(=O)O)cc1` [Compound 380, (Z)-4-(4-(5-methyl-2-(4-morpholinophenylao)pyrimidin-4-ylthio)phenylao)-4-oxobut-2-enoic acid]: the GI50 was more than 20 µM.

With `Cc1cnc(Nc2ccc(N3CCOCC3)cc2)nc1Sc1ccc(N2C(=O)C=C(Br)C2=O)cc1` [Compound 382, 3-bromo-1-(4-(5-methyl-2-(4-morpholinophenylao)pyrimidin-4-ylthio)phenyl)-1H-pyrrole-2,5-dione], the GI50 was less than 20 µM.

Turning to `CCOC(=O)/C=C/C(=O)Nc1ccc(Sc2nc(Nc3ccc(N4CCOCC4)cc3)ncc2C)cc1` [Compound 385, (E)-ethyl 4-(4-(5-methyl-2-(4-morpholinophenylao)pyrimidin-4-ylthio)phenylao)-4-oxobut-2-enoate], the GI50 was less than 1 µM.

With `CNC(=O)/C=C\C(=O)Nc1ccc(Sc2nc(Nc3ccc(N4CCOCC4)cc3)ncc2C)cc1` [Compound 389, N1-methyl-N4-(4-(5-methyl-2-(4-morpholinophenylao)pyrimidin-4-ylthio)phenyl)maleamide], the GI50 is less than 1 µM.
